In patent publication US20250319213A1, “FUNCTIONALIZED BISAMINOTHIOL DERIVATIVES, COMPLEXES WITH THESE BISAMINOTHIOL DERIVATIVES AND USE OF SAID COMPLEXES AS DIAGNOSTICS AND THERAPEUTICS” (ABX ADVANCED BIOCHEMICAL COMPOUNDS – BIOMEDIZINISCHE …, priority 2022, published 2025):

Tests used:
[1] = Product stability in mouse plasma (in vitro); format: in vitro ADME; settings: mean ± SD (n = 3-4), normalized to fraction immediately after preparation
Experimental: (§1) In brief, the freshly produced ^99mTc-labeled radioligand solution (10-20 MBq, 20-100 μL) was added to the respective medium (200-400 μL), vortexed quickly, and shook gently at the respective temperature mentioned below. At certain time points, samples were taken, diluted, and measured by radio-RP-HPLC. Hereby, investigation of plasma samples included protein precipitation with the 4-fold volume of an ice-cold mixture of methanol/water (4/1, v/v), intensive shaking (5 min) and centrifugation (14,000 rpm, 10 min), before inspection of the supernatant. In addition, the recovery of extracted activity was calculated after activity measurement of supernatant and residue by a gamma counter.

[2] = Determination of log D values (shake-flask, octanol/medium); format: physicochemical
Experimental: Log D values were determined for different media by the shake-flask method (Andrés, A.; Rosés, M.; Ràfols, C.; Bosch, E.; Espinosa, S.; Segarra, V.; Huerta, J. M. Setup and validation of shake-flask procedures for the determination of partition coefficients (log D) from low drug amounts. Eur. J. Pharm. Sci. 2015, 76, 181-191.). In preparation, octanol was saturated with each of the used buffer solutions and vice versa. To 3 mL of octanol, together with 3 mL of buffer solution 200-300 μL of the ^99mTc-labeled radioligand (15-25 MBq, samples in triplicate) were added and shaken vigorously for 30 min. After centrifugation at 9,000 rpm for 15 min, samples were taken from both separated phases and measured by gamma-counter. Log D values were calculated as the ratio of radioactivity determined in octanol and aqueous phase.

[3] = Product stability in DPBS at 25° C.; format: physicochemical; settings: DPBS (+Ca2+, +Mg2+), mean ± SD; for Fraction of radioligand in DPBS at 25° C., 1 h / Fraction of radioligand in DPBS at 25° C., 2 h / Fraction of radioligand in DPBS at 25° C., 4 h / Fraction of radioligand in DPBS at 25° C., 20 h: normalized to fraction immediately after preparation
Experimental: as §1

LNCaP cells = assay: Determination of the internalization (surface binding and internalized activity); format: cell-based, human; settings: 1 h; for Internalization, 4° C. (% AD/mg Protein) / Internalization, 37° C. (% AD/mg Protein): cytosolic activity; for Internalization, 4° C. (% AD/mg Protein) / Internalization, 37° C. (% AD/mg Protein) / Binding, 4° C. (% AD/mg Protein) / Binding, 37° C. (% AD/mg Protein): 25 nM radioligand, mean ± SEM; for Binding, 4° C. (% AD/mg Protein) / Binding, 37° C. (% AD/mg Protein): surface-bound activity
Experimental: Competition, saturation and internalization assays were assessed using the high PSMA expressing human prostate carcinoma cell line LNCaP (ATCC® CRL-1740). The cells were grown as monolayer at 37° C. in a humidified atmosphere comprising 5% CO2 and 95% air in RPMI medium including 10% FCS (Merck KGAA, Germany). After washing the confluent cells twice with phosphate buffered saline (PBS) and detaching them with trypsin/EDTA (0.05%/0.02%), the cells were suspended in medium and counted (Casy TT, Omni Life Science, Germany).
For internalization LNCaP and PC3 cells were seeded, 1×10^5 cells/well in 24-well plates two days before the assay. On the day of internalization, after aspirating the medium, 100 μL of PBS and, for non-specific binding samples, 100 μL 2-PMPA (100 μM) were pipetted into the wells, followed by 400 μL medium including activity. The concentration of the ^99mTc-labeled radioligands was 25 nM. After 1 h of incubation at 37° C. and adjacent well plates at 4° C., the supernatant was removed and the cells washed with cold PBS. Surface-bound activity was stripped with 4° C. cold acid-wash buffer (0.2 M glycine, pH 2.8) for 5 min. The acid wash buffer was transferred from the plate wells to measuring tubes, as was the PBS buffer after washing once (binding on the surface). Cytosolic activity was determined after treatment with cell lysis buffer (0.1 M NaOH/1% SDS). Cell surface and cytosolic activity were measured separately in a gamma counter. Determination of protein content from cell lysate was performed using a spectrophotometer (NanoDrop, Thermo Fisher Scientific, USA) at an absorbance of 280 nm.

[4] = tested on: subcutaneous LNCaP tumor xenografts; assay: SPECT/CT and PET/CT imaging in LNCaP tumor bearing mice; format: in vivo; settings: LNCaP tumor bearing mice after 1 h and 4 h (FIG. 5)
Experimental: A prostate cancer xenograft model was generated via subcutaneous injection of human LNCaP cells into the right shoulder of 8-12 week-old male nude mice (Rj:NMRI-Foxn1^nu/nu, Janvier Labs, Le Genest-Saint-Isle, France). Imaging studies were performed when tumors reached a diameter of >6 mm. General anesthesia was induced and maintained with inhalation of 10% (v/v) desflurane in […] oxygen/air. During anesthesia, animals were continuously warmed at 37° C.
Small animal single-photon emission computed tomography (SPECT) was performed using the nanoSPECT/CT scanner (Mediso Medical Imaging Systems) equipped with an APT63 aperture consisting of four M3 multi-pinhole collimators. Each animal received 30 MBq of ^99mTc-labeled compounds delivered in 0.2 mL of Dulbecco's phosphate-buffered saline as a single intravenous injection through a tail vein catheter. Photon emission was recorded using frame times of 60 s (1 h scan: 40-70 min), 90 s (4 h scan, 3.5-4.5 h), and 320 s (20 h scan, 18.5-21.5 h), and binned simultaneously within the 20% energy window of the 140.5 keV photopeak. With each SPECT scan, a corresponding CT image was recorded and used for anatomical referencing and attenuation correction. SPECT images were reconstructed using the Tera-Tomo™ three-dimensional (3D) algorithm at normal range with a voxel size of 0.4 mm and applying corrections for scatter attenuation, and decay.
Small animal positron emission tomography (PET) was performed using the nanoPET/CT scanner (Mediso Medical Imaging Systems). Each animal received 10 MBq of the radiolabeled reference compound [^68Ga]Ga-PSMA-11 delivered in Dulbecco's phosphate-buffered saline as a single intravenous injection through a tail vein catheter. Emission of the 511 keV annihilation photons was recorded continuously at a coincidence mode of 1:5 for 60 min following radiotracer injection. With each PET scan, a corresponding CT image was recorded and used for anatomical referencing and attenuation correction. Three-dimensional list mode data were binned using the 400-600 keV energy window. PET images of the 40-60 min time frame were reconstructed using the Tera-Tomo™ three-dimensional (3D) algorithm with a voxel size of 0.4 mm and applying corrections for random events, scatter, attenuation, and decay.
Three-dimensional VOIs were created applying fixed threshold for delineation of tumor (30%), muscle (0%); and kidneys (39%). Standardized uptake values (SUV=[MBq detected activity/mL tissue]/[MBq injected activity/g body weight], mL/g) were determined and reported as max SUV (VOI-maximum). Time-activity curves were generated and further analyzed using Prism (GraphPad Software, San Diego CA, USA).

[5] = Product stability at room temperature (without addition of any media); format: physicochemical; settings: no media, radio-RP-HPLC
Experimental: as §1

| SMILES | Fraction of radioligand after 6 h in mouse plasma at 37° C. [1] | LogD (shake-flask, octanol/medium) Na-phosphate pH 7.4 ([2]; 4.4 mM Na2HPO4, 2.2 mM NaH2PO4, pH 7.4) | LogD (shake-flask, octanol/medium) PBS 0.1M pH 7.4 ([2]; PBS 0.1M pH 7.4) | LogD (shake-flask, octanol/medium) TRIS buffer 0.1M pH 7.4 ([2]; TRIS buffer 0.1M pH 7.4) | Fraction of radioligand in DPBS at 25° C., 1 h [3] | Fraction of radioligand in DPBS at 25° C., 2 h [3] | Fraction of radioligand in DPBS at 25° C., 4 h [3] | Fraction of radioligand in DPBS at 25° C., 20 h [3] | % Internalization, 37° C. (LNCaP cells) | Internalization, 4° C. (% AD/mg Protein) (LNCaP cells) | Internalization, 37° C. (% AD/mg Protein) (LNCaP cells) | Binding, 4° C. (% AD/mg Protein) (LNCaP cells) | Binding, 37° C. (% AD/mg Protein) (LNCaP cells) | tumor-to-liver ratios among the [99mTc]-labeled radioligands [4] | tumor-to-muscle ratios among the [99mTc]-labeled radioligands [4] | Fraction of radioligand in DPBS at 25° C., after 6 h instead of 4 h ([3]; 6 h (footnote &), normalized) | Fraction of radioligand at indicated time point after preparation, 0 h ([5]; 0 h) | Fraction of radioligand at indicated time point after preparation, 2 h ([5]; 2 h) | Fraction of radioligand at indicated time point after preparation, 4 h ([5]; 4 h) | Fraction of radioligand at indicated time point after preparation, 6 h ([5]; 6 h) |
| --- | --- | --- | --- | --- | --- | --- | --- | --- | --- | --- | --- | --- | --- | --- | --- | --- | --- | --- | --- | --- |
| CC1(C)CN(CCCCC(=O)N[C@@H](Cc2ccccc2)C(=O)N[C@@H](Cc2ccccc2)C(=O)N[C@@H](CCCCNC(=O)CCCCCCC(=O)NCCCC[C@H](NC(=O)N[C@@H](CCC(=O)O)C(=O)O)C(=O)O)C(=O)O)CC[N]2CC(C)(C)[S][99Tc]2(=[O])[S]1 (stereo partly shown) [[^99mTc]TcO-1] | 96.8 ± 0.3% | −2.18 ± 0.002 | −1.62 ± 0.01 | −2.18 ± 0.01 | 101.5 ± 0.6% | 99.5 ± 0.8% | 100.2 ± 1.0% | 93.5 ± 1.8% | – | – | – | – | – | – | – | – | – | – | – | – |
| CC1(C)CN(CCCCC(=O)N[C@H](Cc2ccc(O)c(I)c2)C(=O)N[C@H](Cc2ccccc2)C(=O)N[C@H](CCCCNC(=O)CCCCCCC(=O)NCCCC[C@H](NC(=O)N[C@@H](CCC(=O)O)C(=O)O)C(=O)O)C(=O)O)CC[N]2CC(C)(C)[S][99Tc]2(=[O])[S]1 (stereo partly shown) [[^99mTc]TcO-4] | – | – | – | – | 88.4 ± 14.8% | 100 ± 1.8% | 105.5% | 98.0 ± 1.0% | 39.2% | 0.2 ± 0.0 % AD/mg Protein | 1.9 ± 0.9 % AD/mg Protein | 2.2 ± 0.1 % AD/mg Protein | 2.9 ± 0.5 % AD/mg Protein | – | – | – | – | – | – | – |
| O=C(O)CC[C@H](NC(=O)N[C@@H](CCCCNC(=O)CCCCCCC(=O)NCCCC[C@@H](NC(=O)[C@H](CCC(=O)O)NC(=O)[C@H](CCC(=O)O)NC(=O)CCC(=O)NCCCN1CC[S][99Tc]2(=[O])[S]CC[N]2CC1)C(=O)O)C(=O)O)C(=O)O (stereo partly shown) [[^99mTc]TcO-6] | – | – | – | – | 75.9 ± 0.2% | 74.4 ± 0.1% | – | 18.7% | 38.5% | 0.2 ± 0.0 % AD/mg Protein | 2.9 ± 0.2 % AD/mg Protein | 2.5 ± 0.4 % AD/mg Protein | 4.7 ± 0.2 % AD/mg Protein | a marked or a significant increase | a marked or a significant increase | 72.3 ± 0.9%^& | 89% | 87% | 88% | 85% |
| O=C([O-])CN(CCN(CC(=O)[O-])Cc1cc(CCC(=O)NCCCCCC(=O)NCCCC[C@H](NC(=O)N[C@@H](CCC(=O)O)C(=O)O)C(=O)O)ccc1[O-])Cc1cc(CCC(=O)O)ccc1[O-].[68Ga+3].[OH3+] [^68Ga-PSMA11, reference compound] | – | – | – | – | – | – | – | – | 40.3% | 0.1 ± 0.0 % AD/mg Protein | 0.5 ± 0.2 % AD/mg Protein | 0.3 ± 0.4 % AD/mg Protein | 0.8 ± 0.2 % AD/mg Protein | – | – | – | – | – | – | – |
